Measurements: publication PMC3586729 (Nature Communications, 2013)

Target: T1, F. pringlei R884G mutant C3 PEPC (Flaveria pringlei, UniProt Q01647, R885G)
T1 sequence (Q01647 1-967 R885G): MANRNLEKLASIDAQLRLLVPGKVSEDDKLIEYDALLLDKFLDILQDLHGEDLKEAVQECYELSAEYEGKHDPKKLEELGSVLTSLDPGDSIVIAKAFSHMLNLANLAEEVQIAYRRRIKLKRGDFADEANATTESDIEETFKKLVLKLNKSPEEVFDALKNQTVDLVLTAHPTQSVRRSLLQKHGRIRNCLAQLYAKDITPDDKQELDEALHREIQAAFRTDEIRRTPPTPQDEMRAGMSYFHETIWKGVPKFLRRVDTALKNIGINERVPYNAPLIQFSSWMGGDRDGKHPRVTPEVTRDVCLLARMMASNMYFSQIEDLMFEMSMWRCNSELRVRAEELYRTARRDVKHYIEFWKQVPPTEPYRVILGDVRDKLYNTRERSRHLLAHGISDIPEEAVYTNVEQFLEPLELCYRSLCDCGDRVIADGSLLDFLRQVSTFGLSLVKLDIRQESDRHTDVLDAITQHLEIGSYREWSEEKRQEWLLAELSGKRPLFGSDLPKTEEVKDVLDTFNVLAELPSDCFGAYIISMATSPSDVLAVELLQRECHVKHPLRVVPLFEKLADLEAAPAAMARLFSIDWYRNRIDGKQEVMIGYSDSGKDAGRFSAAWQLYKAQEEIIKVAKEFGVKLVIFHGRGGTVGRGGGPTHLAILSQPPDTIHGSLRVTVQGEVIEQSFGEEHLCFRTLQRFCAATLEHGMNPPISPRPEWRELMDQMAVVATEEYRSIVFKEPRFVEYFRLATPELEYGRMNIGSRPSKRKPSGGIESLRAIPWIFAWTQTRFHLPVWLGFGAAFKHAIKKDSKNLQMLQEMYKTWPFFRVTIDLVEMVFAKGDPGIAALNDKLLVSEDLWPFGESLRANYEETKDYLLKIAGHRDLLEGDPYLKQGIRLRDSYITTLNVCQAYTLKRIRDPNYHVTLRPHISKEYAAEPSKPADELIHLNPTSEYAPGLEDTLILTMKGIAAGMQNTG
Assay type: biochemical
Details: C3 PEPC R884G versus wild-type C3 PEPC from F. pringlei

O=C(O)CC(O)C(=O)O (stereo not shown) [malate]
malate tolerance of the engineered enzyme increased by a factor: ~ 3
